According to patent US20140178318A1, “NOVEL COMPOUNDS” (DSM IP ASSETS B.V., priority 2009, published 2014):

Assay: Comparative example: solubility of BMDBM in 1:1 mixture of C12-15 alkyl benzoate and other UV-filter
Excerpt: Where necessary the mixture was centrifuged in order to obtain a clear supernatant.

SMILES: CCCCC(CC)COc1ccc(-c2nc(-c3ccc(OC)cc3)nc(-c3ccc(OCC(CC)CCCC)cc3O)n2)c(O)c1 (stereo not drawn) [BEMT, bis-ethylhexyloxyphenol methoxyphenyl triazine]
- Solubility of BMDBM in C12-15 alkyl benzoate/UV-filter 1:1 (200 mg BMDBM with 1000 mg of 1:1 mixture, supernatant by HPLC after 1 month at RT): 3 wt.-%
- Δ solubility related to cosmetic solvent (BMDBM) (C12-15 alkyl benzoate/UV-filter 1:1): −4 wt.-%
- Δ solubility of BMDBM (C12-15 alkyl benzoate/UV-filter 1:1 versus C12-15 alkyl benzoate): −11 wt.-%
